From patent US20180148452A1, “TOLL-LIKE RECEPTOR-7 AGONIST” (MEDSHINE DISCOVERY INC., priority 2014, published 2018) come the findings set out here.

Molecules are shown by their SMILES. Where a name gives a salt, the structure may show the parent alone.

Assay [1] deals with T1, hTLR7 (Homo sapiens, UniProt Q9NYK1).
T1 construct: expressed in transfected cells; host or cells: HEK-Blue-hTLR7 cells (HEK293-derived SEAP reporter line)
T1 sequence (Q9NYK1 27-1049): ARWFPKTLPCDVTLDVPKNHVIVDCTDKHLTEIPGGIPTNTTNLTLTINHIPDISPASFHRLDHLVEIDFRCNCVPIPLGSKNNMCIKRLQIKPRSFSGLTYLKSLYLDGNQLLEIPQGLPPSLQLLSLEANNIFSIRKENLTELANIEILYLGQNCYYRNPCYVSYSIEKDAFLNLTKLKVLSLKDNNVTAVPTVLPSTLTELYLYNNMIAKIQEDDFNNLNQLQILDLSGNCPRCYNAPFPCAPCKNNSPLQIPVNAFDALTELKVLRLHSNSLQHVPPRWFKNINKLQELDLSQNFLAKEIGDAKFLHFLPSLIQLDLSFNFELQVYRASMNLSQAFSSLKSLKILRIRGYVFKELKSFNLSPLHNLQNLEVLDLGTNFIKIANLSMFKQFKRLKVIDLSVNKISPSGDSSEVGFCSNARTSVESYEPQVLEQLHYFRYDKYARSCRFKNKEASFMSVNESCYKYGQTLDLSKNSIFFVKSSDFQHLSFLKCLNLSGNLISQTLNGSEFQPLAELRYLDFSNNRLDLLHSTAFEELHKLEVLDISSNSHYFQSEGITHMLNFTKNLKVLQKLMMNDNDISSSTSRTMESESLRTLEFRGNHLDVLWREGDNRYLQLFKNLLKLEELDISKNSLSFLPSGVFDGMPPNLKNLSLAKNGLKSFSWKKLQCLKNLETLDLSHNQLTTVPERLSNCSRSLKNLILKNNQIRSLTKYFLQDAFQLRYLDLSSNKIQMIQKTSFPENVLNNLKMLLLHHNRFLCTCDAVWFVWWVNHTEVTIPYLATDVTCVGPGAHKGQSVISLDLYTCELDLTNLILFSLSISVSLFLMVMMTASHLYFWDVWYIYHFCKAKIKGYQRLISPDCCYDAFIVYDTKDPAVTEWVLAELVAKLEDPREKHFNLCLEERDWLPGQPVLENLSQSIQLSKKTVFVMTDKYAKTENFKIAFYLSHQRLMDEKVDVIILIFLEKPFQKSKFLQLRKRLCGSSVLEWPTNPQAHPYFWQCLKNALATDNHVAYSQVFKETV
The assay is described as follows: TLR7 agonist screening protocol in vitro (HEK-Blue-hTLR7 reporter, QUANTI-Blue). The conditions noted are these: HEK-Blue-hTLR7 cells, 24 hours incubation, alkaline phosphatase OD650. The class given is cell-based. How it is done: Test 1: TLR7 Agonist Screening Protocol In Vitro
1. Preparation for 96-well plate: Compounds are 3 folds serial diluted with DMSO by POD, start from 10 mM, 10 concentrations (column 2 to 11, duplicated), 1 μL DMSO per well. Take 1 μL of 5 mM R848 as positive control (column 12) and 1 μL of DMSO as negative control (column 1).
2. Harvest cells and adjust cell suspension to the density of 250,000 cells/ml.
3. 200 μL cells are seeded into the cell culture plate containing compounds with the cell density of 50,000 cells/well, the final DMSO concentration is 0.5%.
4. Incubate the plates containing the cells and compounds at 37° C., 5% CO2 for 24 hours.
5. After 24 hours' incubation, fetch 20 μL supernatant from each well to transfer to another transparent 96-well cell culture plate. Add 180 μL QUANTI-Blue to each well of the cell culture plate containing 20 μL supernatant, and incubate at 37° C., 5% CO2 for 1 hour.
6. After 1 hour, determine alkaline phosphatase levels in 20 μL supernatant by using ELIASA reading at OD650.
7. Data analysis by Prism software, EC50 of each compound was obtained.

For assay [2], the system named is Female Balb/c mice. The assay is described as follows: Induction of IFN-α and TNF-α following intranasal dosing in the mouse. The class given is in vivo. The conditions noted are these: serum, 2 h after single i.n. dose; for IFN-α Conc. (1 mM): 1 mM (0.1 mpk); for IFN-α Conc. (3 mM) / TNF-α Conc. (3 mM): 3 mM (0.3 mpk); for IFN-α Conc. (10 mM) / TNF-α Conc. (10 mM): 10 mM (1 mpk); for IFN-α Conc. (30 mM) / TNF-α Conc. (30 mM): 30 mM (3 mpk). How it is done: Test 3: Assay for the Induction of Interferon-α (IFN-α) and Tumor Necrosis Factor-α (TNF-α) Following Intranasal Dosing in the Mouse
Female Balb/c mice (18-20 g) were anesthetized with isoflurane and then administered intranasally (20 μL in total between the nostrils) with compounds dissolved in saline with 0.2% Tween 80. After two hours, mice were euthanased by CO2 inhalation and blood samples were taken by cardiac puncher. Then blood samples were centrifuged and serum was collected. Serum samples were tested by ELISA with appropriate dilution according to the manufacturer's instructions. In this model, compounds could induce different IFN-α/TNF-α levels related to the dose of the compounds, while no IFN-α/TNF-α was detected in vehicle treated controls.

Regarding `CCCCOc1nc(N)c2[nH]c(C#N)c(CCCCCN(CC)CC)c2n1` [Example 8, 4-amino-2-butoxy-7-(5-(diethylamino)pentyl)-5H-pyrrolo[3,2-d]pyrimidine-6-carbonitrile formate], the EC50 (as a rule, the midpoint of the concentration-response curve) in assay [1] is 0.001 to 0.1 µM.

Turning to `CCC[C@H](C)Oc1nc(N)c2[nH]c(C#N)c(CCCCCN3CCCCC3)c2n1` [Example 2, (S)-4-amino-(1-methylbutoxy)-7-(5-(piperidin-1-yl)pentyl)-5H-pyrrolo[3,2-d]pyrimidine-6-carbonitrile formate], in assay [1], the EC50 is 0.001 to 0.1 µM.

Compound `CCCCOc1nc(N)c2[nH]c(C#N)c(CCCCCN3CCCC3C(=O)NCC3CC3)c2n1` (stereo not shown) [Example 16, formate] registered an EC50 in assay [1] of 0.1 to 0.25 µM.

In the case of `CCCCOc1nc(N)c2[nH]c(C#N)c(CCCCN3CCCCC3)c2n1` [Example 3, 4-amino-2-butoxy-7-(4-(piperidin-1-yl)butyl)-5H-pyrrolo[3,2-d]pyrimidine-6-carbonitrile formate], the EC50 in assay [1] fell in the range of 0.001 to 0.1 µM.

For `CCCCOc1nc(N)c2[nH]c(C#N)c(CCCCCN3CCCC3C(=O)N3CCN(C)CC3)c2n1` (stereo not shown) [Example 15, 4-amino-2-butoxy-7-(5-((2-(4-methylpiperazine-1-carbonyl)pyrrolidin-1-yl)pentyl)-5H-pyrrolo[3,2-d]pyrimidine-6-carbonitrile formate], in assay [1], the EC50 lay in the range of 0.1 to 0.25 µM.

The compound `CCCCOc1nc(N)c2[nH]c(C#N)c(CCCCCN3CCN(C)CC3=O)c2n1` [Example 11, 4-amino-2-butoxy-7-(5-(4-methyl-2-oxopiperazin-1-yl)pentyl)-5H-pyrrolo[3,2-d]pyrimidine-6-carbonitrile formate] yielded an EC50 in assay [1] of 0.1 to 0.25 µM.

`CCCCOc1nc(N)c2[nH]c(C#N)c(CCCCCN3CCC(F)(F)CC3)c2n1` [Example 9, 4-amino-2-butoxy-7-(5-(4,4′-difluoro-1-piperidinyl)pentyl)-5H-pyrrolo[3,2-d]pyrimidine-6-carbonitrile formate] registered an EC50 in assay [1] of 0.1 to 0.25 µM.

In the case of `CCCCOc1nc(N)c2[nH]c(C#N)c(CCCCC3CCCCN3)c2n1` (stereo not shown) [Example 22, 4-amino-2-butoxy-7-(4-(piperidin-2-yl)butyl)-5H-pyrrolo[3,2-d]pyrimidine-6-carbonitrile formate], in assay [1], the EC50 was 0.1 to 0.25 µM.

In assay [1], `CCCCOc1nc(N)c2[nH]c(C#N)c(CCCCCN3CCCC3)c2n1` [Example 20, 4-amino-2-butoxy-7-(5-(tetrahydropyrrol-1-yl)pentyl)-5H-pyrrolo[3,2-d]pyrimidine-6-carbonitrile hydrochloride] returned an EC50 of 0.001 to 0.1 µM.

Turning to `CCCCOc1nc(N)c2[nH]c(C#N)c(CCCC3CCN(C)CC3)c2n1` [Example 24, 4-amino-2-butoxy-7-(3-(1-methylpiperidin-4-yl)propyl)-5H-pyrrolo[3,2-d]pyrimidine-6-carbonitrile formate], in assay [1], the EC50 was 0.001 to 0.1 µM.

`CCCCOc1nc(N)c2[nH]c(C#N)c(CCCCCCN3CCCC3)c2n1` [Example 19, 4-amino-2-butoxy-7-(6-(tetrahydropyrrol-1-yl)hexyl)-5H-pyrrolo[3,2-d]pyrimidine-6-carbonitrile formate]: the EC50 in assay [1] is 0.001 to 0.1 µM.

In turn, `CCCCOc1nc(N)c2[nH]c(C#N)c(CCCCCN3CC4CC3CN4C)c2n1` (stereo not shown) [Example 7, 4-amino-2-butoxy-7-(5-(5-methyl-2,5-diazabicyclo[2.2.1]heptan-2-yl)pentyl)-5H-pyrrolo[3,2-d]pyrimidine-6-carbonitrile formate] returned a half-maximal effective concentration (EC50) in assay [1] of 0.25 to 0.5 µM.

On to `CCC[C@H](C)Oc1nc(N)c2[nH]c(=O)n(CCCCCN3CCCCC3)c2n1.Cl` [GSK-2245035, reference compound], for which the EC50 in assay [1] fell in the range of 0.001 to 0.1 µM. In assay [2], the “IFN-α Conc. (1 mM)” value is recorded as under 100 pg/mL, the “IFN-α Conc. (3 mM)” value turned out to be 1000 pg/mL, the “TNF-α Conc. (3 mM)” value is under 10 pg/mL and the “IFN-α Conc. (10 mM)” value came to 3500 pg/mL. In addition, in assay [2], the “TNF-α Conc. (10 mM)” value was 50 pg/mL, the “IFN-α Conc. (30 mM)” value was 4500 pg/mL and the “TNF-α Conc. (30 mM)” value came to 400 pg/mL.

For the compound `CCCCOc1nc(N)c2[nH]c(C#N)c(CCCCCN3CC4(COC4)C3)c2n1` [Example 5, 7-(5-(2-oxa-6-azaspiro[3.3]heptan-6-yl)pentyl)-4-amino-2-butoxy-5H-pyrrolo[3,2-d]pyrimidine-6-carbonitrile formate], in assay [1], the EC50 is 0.001 to 0.1 µM.

Turning to `CCCCOc1nc(N)c2[nH]c(C#N)c(CCCCCN3CCCCC3C(N)=O)c2n1` (stereo not shown) [Example 17, hydrochloride], in assay [1], the EC50 was in the range of 0.001 to 0.1 µM.

As for `CCCCOc1nc(N)c2[nH]c(C#N)c(CCCCCN3CCCC3C(=O)N(C)C)c2n1` (stereo not shown) [Example 14, 4-amino-2-butoxy-7-(5-(2-(N,N′-dimethylformamido)-pyrrolidin-1-yl)pentyl)-5H-pyrrolo[3,2-d]pyrimidin-6-nitrile formate], in assay [1], the half-maximal effective concentration (EC50) was 0.001 to 0.1 µM.

As to `CCCCOc1nc(N)c2[nH]c(C#N)c(CCCCCN3CCN(C)CC3)c2n1` [Example 6, 4-amino-2-butoxy-7-(5-(4-methylpiperazin-1-yl)pentyl)-5H-pyrrolo[3,2-d]pyrimidine-6-carbonitrile formate], the EC50 in assay [1] was in the range of 0.001 to 0.1 µM.

In turn, `CCCCOc1nc(N)c2[nH]c(C#N)c(CCCCC3CCCCN3C(=O)NC)c2n1` (stereo not shown) [Example 23, 4-amino-2-butoxy-7-(4-(1-(1-N-methylcarbonyl)piperidin-2-yl)butyl)-5H-pyrrolo[3,2-d]pyrimidin-6-nitrile] showed an EC50 in assay [1] of 0.1 to 0.25 µM.

As to `CCCCOc1nc(N)c2[nH]c(C#N)c(CCCCCN3CCOCC3)c2n1` [Example 4, 4-amino-2-butoxy-7-(5-morpholin-1-yl)pentyl)-5H-pyrrolo[3,2-d]pyrimidine-6-carbonitrile formate], in assay [1], the EC50 was in the range of 0.001 to 0.1 µM.

In turn, `CCCCOc1nc(N)c2[nH]c(C#N)c(CCCCCN3CCC[C@@H]3C(N)=O)c2n1` [Example 13] registered an EC50 in assay [1] of 0.001 to 0.1 µM.

In assay [1], `CCCCOc1nc(N)c2[nH]c(C#N)c(CCCCCN3CC4CCC(C3)N4C)c2n1` [Example 21, 4-amino-2-butoxy-7-(5-(8-methyl-3,8-diazabicyclo[3.2.1]octan-3-yl)pentyl)-5H-pyrrolo[3,2-d]pyrimidine-6-carbonitrile formate] returned an EC50 of 0.1 to 0.25 µM.

As to `CCCCOc1nc(N)c2[nH]c(C#N)c(CCCCCNC(C(N)=O)C(C)C)c2n1` (stereo not shown) [Example 18, 4-amino-2-butoxy-7-(5-((1-formamido-1′-isopropyl)amino)pentyl)-5H-pyrrolo[3,2-d]pyrimidine-6-carbonitrile hydrochloride], the EC50 in assay [1] lay in the range of 0.001 to 0.1 µM.

The compound `CCCCOc1nc(N)c2[nH]c(C#N)c(CCCCCN3CCCCC3)c2n1` [Example 1, 4-Amino-2-butoxy-7-(5-(piperidin-1-yl)pentyl)-5H-pyrrolo[3,2-d]pyrimidine-6-carbonitrile formate] yielded an EC50 in assay [1] of 0.001 to 0.1 µM. In assay [2], the “IFN-α Conc. (1 mM)” value is reported as 500 pg/mL, the “IFN-α Conc. (3 mM)” value worked out at 4500 pg/mL, the “TNF-α Conc. (3 mM)” value stood at 100 pg/mL and the “IFN-α Conc. (10 mM)” value is 7500 pg/mL. Also, in assay [2], the “TNF-α Conc. (10 mM)” value came to 300 pg/mL, the “IFN-α Conc. (30 mM)” value is reported as 7000 pg/mL and the “TNF-α Conc. (30 mM)” value turned out to be 500 pg/mL.
